This passage reports relative viability results from the supplement of paper PMC10307832.

Compound in the assay “Idelalisib + Pemetrexed”: CC[C@H](Nc1ncnc2[nH]cnc12)c1nc2cccc(F)c2c(=O)n1-c1ccccc1 [Idelalisib] + Nc1nc2[nH]cc(CCc3ccc(C(=O)N[C@@H](CCC(=O)O)C(=O)O)cc3)c2c(=O)[nH]1 [Pemetrexed] (partner 0.2 µM)
Kind of assay: relative viability (nuclei count vs DMSO), 5 days (fraction); higher = more cells survive. An outline of the steps: (§1)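 Medians of duplicate plates are given as relative viability. That measure is the nuclei count in treated wells divided by the count in vehicle wells. Counts were taken on 4× images of lung cancer cell lines in 1536-well plates, 5 days after pin-tool dosing the day after seeding with one drug alone or a fixed anchor-drug dose plus five library-drug doses (not always all listed) in √10 steps.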

Compound in the assay “Idelalisib + Olaparib”: CC[C@H](Nc1ncnc2[nH]cnc12)c1nc2cccc(F)c2c(=O)n1-c1ccccc1 [Idelalisib] + O=C(c1cc(Cc2n[nH]c(=O)c3ccccc23)ccc1F)N1CCN(C(=O)C2CC2)CC1 [Olaparib] (partner 8 µM)
The assay is described as above. The gist of the method:
as §1

NCI-H1651: the relative viability in the assay with Idelalisib + Pemetrexed (first compound 0.04 µM) turned out to be 0.634; in the assay with Idelalisib + Pemetrexed (first compound 0.1265 µM) it was 0.355; in the assay with Idelalisib + Pemetrexed (first compound 0.4 µM), 0.537; with Idelalisib + Pemetrexed (first compound 1.265 µM) it was 0.522; with Idelalisib + Pemetrexed (first compound 4 µM), 0.59; in the assay with Idelalisib + Olaparib (first compound 0.04 µM), 0.19. Also, the relative viability with Idelalisib + Olaparib (first compound 0.1265 µM) was determined as 0.171; in the assay with Idelalisib + Olaparib (first compound 0.4 µM), 0.184; with Idelalisib + Olaparib (first compound 1.265 µM), 0.161; with Idelalisib + Olaparib (first compound 4 µM) it was 0.179.

As for A549, the relative viability with Idelalisib + Olaparib (first compound 0.04 µM) was determined as 0.238; in the assay with Idelalisib + Olaparib (first compound 0.1265 µM), 0.28; with Idelalisib + Olaparib (first compound 0.4 µM), 0.236; with Idelalisib + Olaparib (first compound 1.265 µM) it was 0.266; with Idelalisib + Olaparib (first compound 4 µM), 0.361.

Consider HCC-366, for which the relative viability was 0.178 in the assay with Idelalisib + Pemetrexed (first compound 0.04 µM); 0.163 with Idelalisib + Pemetrexed (first compound 0.1265 µM); 0.214 with Idelalisib + Pemetrexed (first compound 0.4 µM); 0.138 in the assay with Idelalisib + Pemetrexed (first compound 1.265 µM); 0.21 in the assay with Idelalisib + Pemetrexed (first compound 4 µM); 0.386 with Idelalisib + Olaparib (first compound 0.04 µM). Moreover, the relative viability came out at 0.412 in the assay with Idelalisib + Olaparib (first compound 0.1265 µM), 0.348 in the assay with Idelalisib + Olaparib (first compound 0.4 µM), 0.305 with Idelalisib + Olaparib (first compound 1.265 µM) and 0.315 with Idelalisib + Olaparib (first compound 4 µM).

With EKVX, the relative viability with Idelalisib + Pemetrexed (first compound 0.04 µM) was determined as 0.407; with Idelalisib + Pemetrexed (first compound 0.1265 µM), 0.387; with Idelalisib + Pemetrexed (first compound 0.4 µM) it was 0.377; in the assay with Idelalisib + Pemetrexed (first compound 1.265 µM), 0.386; with Idelalisib + Pemetrexed (first compound 4 µM), 0.395; with Idelalisib + Olaparib (first compound 0.04 µM), 0.756. For the same cell line, the relative viability worked out at 0.915 with Idelalisib + Olaparib (first compound 0.1265 µM), 0.755 with Idelalisib + Olaparib (first compound 0.4 µM), 0.884 with Idelalisib + Olaparib (first compound 1.265 µM) and 0.74 in the assay with Idelalisib + Olaparib (first compound 4 µM).

Regarding NCI-H1993, the relative viability with Idelalisib + Pemetrexed (first compound 0.04 µM) came to 0.592; with Idelalisib + Pemetrexed (first compound 0.1265 µM) it was 0.67; with Idelalisib + Pemetrexed (first compound 0.4 µM), 0.548; in the assay with Idelalisib + Pemetrexed (first compound 1.265 µM), 0.614; with Idelalisib + Pemetrexed (first compound 4 µM), 0.59; with Idelalisib + Olaparib (first compound 0.04 µM), 1.16. For the same cell line, the relative viability turned out to be 1.07 with Idelalisib + Olaparib (first compound 0.1265 µM), 0.866 in the assay with Idelalisib + Olaparib (first compound 0.4 µM), 0.915 with Idelalisib + Olaparib (first compound 1.265 µM) and 0.791 in the assay with Idelalisib + Olaparib (first compound 4 µM).

Take NCI-H522: the relative viability with Idelalisib + Pemetrexed (first compound 0.04 µM) turned out to be 1.3; with Idelalisib + Pemetrexed (first compound 0.1265 µM), 0.99; with Idelalisib + Pemetrexed (first compound 0.4 µM) it was 0.995; with Idelalisib + Pemetrexed (first compound 1.265 µM), 1.21; in the assay with Idelalisib + Pemetrexed (first compound 4 µM), 1.05; in the assay with Idelalisib + Olaparib (first compound 0.04 µM) it was 0.684. The relative viability with Idelalisib + Olaparib (first compound 0.1265 µM) is 0.526; in the assay with Idelalisib + Olaparib (first compound 0.4 µM) it was 0.606; with Idelalisib + Olaparib (first compound 1.265 µM), 0.678; in the assay with Idelalisib + Olaparib (first compound 4 µM), 0.72.

As to NCI-H1703, the relative viability in the assay with Idelalisib + Olaparib (first compound 0.04 µM) was found to be 0.459; with Idelalisib + Olaparib (first compound 0.1265 µM), 0.436; with Idelalisib + Olaparib (first compound 0.4 µM) it was 0.365; in the assay with Idelalisib + Olaparib (first compound 1.265 µM), 0.388; with Idelalisib + Olaparib (first compound 4 µM) it was 0.237.

Turning to NCI-H23, the relative viability with Idelalisib + Pemetrexed (first compound 0.04 µM) stood at 0.64; with Idelalisib + Pemetrexed (first compound 0.1265 µM), 0.619; with Idelalisib + Pemetrexed (first compound 0.4 µM), 0.422; with Idelalisib + Pemetrexed (first compound 1.265 µM), 0.53; with Idelalisib + Pemetrexed (first compound 4 µM), 0.509; with Idelalisib + Olaparib (first compound 0.04 µM), 0.286. Further, the relative viability in the assay with Idelalisib + Olaparib (first compound 0.1265 µM) came to 0.289; in the assay with Idelalisib + Olaparib (first compound 0.4 µM), 0.336; with Idelalisib + Olaparib (first compound 1.265 µM), 0.29; in the assay with Idelalisib + Olaparib (first compound 4 µM), 0.307.

On to HCC-827, for which the relative viability worked out at 0.267 with Idelalisib + Pemetrexed (first compound 0.04 µM); 0.218 with Idelalisib + Pemetrexed (first compound 0.1265 µM); 0.232 with Idelalisib + Pemetrexed (first compound 0.4 µM); 0.249 with Idelalisib + Pemetrexed (first compound 1.265 µM); 0.25 with Idelalisib + Pemetrexed (first compound 4 µM); 0.667 with Idelalisib + Olaparib (first compound 0.04 µM). Also, the relative viability in the assay with Idelalisib + Olaparib (first compound 0.1265 µM) turned out to be 0.613; in the assay with Idelalisib + Olaparib (first compound 0.4 µM) it was 0.612; with Idelalisib + Olaparib (first compound 1.265 µM) it was 0.571; in the assay with Idelalisib + Olaparib (first compound 4 µM) it was 0.491.
